From patent US10626081B2, “Farnesoid X receptor agonists and uses thereof” (Metacrine, Inc., priority 2015, dated 2020)

Key:
[1] = target: T1, FXR (Homo sapiens, UniProt Q96RI1); test: In Vitro FXR Assay (PGL3): luciferase reporter in transfected CV-1 cells; format: cell-based; conditions: CV-1 cells transfected with hFXR, hRXR, PGL3-ECRE*6-luc; 18 h incubation; luminescence
T1 construct: expressed in transfected cells; host or cells: CV-1 cells
T1 sequence (Q96RI1 1-486): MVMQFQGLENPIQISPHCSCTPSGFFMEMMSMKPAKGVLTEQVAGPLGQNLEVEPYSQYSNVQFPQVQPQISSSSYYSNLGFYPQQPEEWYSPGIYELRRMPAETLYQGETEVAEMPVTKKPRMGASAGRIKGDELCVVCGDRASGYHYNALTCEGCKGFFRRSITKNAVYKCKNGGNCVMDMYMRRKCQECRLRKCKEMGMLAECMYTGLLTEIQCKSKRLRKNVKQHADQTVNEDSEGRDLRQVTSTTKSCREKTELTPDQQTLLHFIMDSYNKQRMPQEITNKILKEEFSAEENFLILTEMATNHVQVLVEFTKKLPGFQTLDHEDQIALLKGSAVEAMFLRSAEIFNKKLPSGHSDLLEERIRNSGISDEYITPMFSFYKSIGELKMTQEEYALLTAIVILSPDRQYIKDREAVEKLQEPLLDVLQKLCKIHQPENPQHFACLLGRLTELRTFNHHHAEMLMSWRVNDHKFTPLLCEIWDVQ
T1 sequence (P19793 1-462 partner): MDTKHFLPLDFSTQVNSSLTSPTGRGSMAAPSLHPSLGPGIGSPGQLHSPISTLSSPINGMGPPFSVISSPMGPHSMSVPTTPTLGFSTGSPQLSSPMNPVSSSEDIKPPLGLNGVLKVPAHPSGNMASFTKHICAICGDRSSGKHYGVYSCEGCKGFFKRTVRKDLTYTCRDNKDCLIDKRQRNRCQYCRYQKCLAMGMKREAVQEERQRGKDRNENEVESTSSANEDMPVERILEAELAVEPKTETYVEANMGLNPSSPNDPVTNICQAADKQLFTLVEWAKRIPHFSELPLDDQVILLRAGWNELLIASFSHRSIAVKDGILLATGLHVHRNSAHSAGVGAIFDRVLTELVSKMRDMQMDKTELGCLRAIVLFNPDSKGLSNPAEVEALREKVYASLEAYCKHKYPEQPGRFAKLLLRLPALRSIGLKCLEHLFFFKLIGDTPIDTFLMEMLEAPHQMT
How it was run: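 CV-1 cells in charcoal-stripped FBS were transiently co-transfected with full-length human FXR, RXR, an ECRE×6-luciferase reporter, β-gal and YFP plasmids. Transfected cells were reseeded onto half-log compound dilutions and incubated 18 h. Luciferase luminescence was read after lysis, and EC50 was determined.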

[2] = target: T1, FXR; test: In Vitro FXR Assay (TK): TK-ECRE-luc reporter in transfected CV-1 cells; format: cell-based; conditions: CV-1 cells transfected with hFXR, hRXR, 18 h incubation, luminescence
How it was run: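 Luciferase read-out from lysed CV-1 cells exposed 18 h to DMSO-diluted compounds. Cells had been transfected overnight with expression plasmids for hFXR and hRXR plus TK-ECRE-luc reporter and pCMX-YFP, grown in charcoal-stripped serum at 37 °C, 5% CO2.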

Structure (SMILES) | Cmpd/Fex (ratio of the EC50 for the test compound relative to the EC50 of the Fexaramine control) [1] | EC50 [2] [µM]
COC(=O)/C=C/c1cccc(N(Cc2ccc(-c3ccc(N(C)C)cc3)cc2)C(=O)C2COC2)c1 [compound 6, (E)-Methyl 3-(3-(N-((4′-(dimethylamino)-[1,1′-biphenyl]-4-yl)methyl)oxetane-3-carboxamido)phenyl)acrylate] | ++ (‘++’ means Cmpd/Fex > 10 & < 100) | 1 to 10
CCc1cc(/C=C/C(=O)OC)cc(N(Cc2ccc(-c3ccc(N(C)C)cc3)cc2)C(=O)C2CCCCC2)c1 [compound 85, (E)-Methyl 3-(3-(N-((4′-(dimethylamino)-[1,1′-biphenyl]-4-yl)methyl)cyclohexanecarboxamido)-5-ethylphenyl)acrylate] | +++ (‘+++’ means Cmpd/Fex < 10) | 1 to 10
COC(=O)/C=C/c1cccc(N(Cc2ccc(-c3ccc(N(C)C)cc3)cc2)C(=O)C2CCCCC2)c1C [compound 41, (E)-Methyl 3-(3-(N-((4′-(dimethylamino)-[1,1′-biphenyl]-4-yl)methyl)cyclohexanecarboxamido)-2-methylphenyl)acrylate] | ++ (‘++’ means Cmpd/Fex > 10 & < 100) | 1 to 10
COC(=O)/C=C/c1cccc(N(C(=O)C2CCCCC2)C(C)c2ccc(-c3ccc(N(C)C)cc3)cc2)c1 (stereo not drawn) [compound 46, (E)-Methyl 3-(3-(N-(1-(4′-(dimethylamino)-[1,1′-biphenyl]-4-yl)ethyl)cyclohexanecarboxamido)phenyl) acrylate] | ++ (‘++’ means Cmpd/Fex > 10 & < 100) | 1 to 10
COC(=O)/C=C/c1cccc(N(Cc2ccc(-c3ccc(N(C)C)c(F)c3)cc2)C(=O)C2CCCCC2)c1 [compound 73, (E)-Methyl 3-(3-(N-((4′-(dimethylamino)-3′-fluoro-[1,1′-biphenyl]-4-yl)methyl)cyclohexanecarboxamido)phenyl) acrylate] | +++ (‘+++’ means Cmpd/Fex < 10) | ≤ 1
CC(C)OC(=O)/C=C/c1cccc(N(Cc2ccc(-c3ccc(N(C)C)cc3)cc2)C(=O)C2CCCCC2)c1 [compound 83, (E)-iso-Propyl 3-(3-(N-((4′-(dimethylamino)-[1,1′-biphenyl]-4-yl)methyl)cyclohexanecarboxamido)phenyl) acrylate] | +++ (‘+++’ means Cmpd/Fex < 10) | 1 to 10
COC(=O)/C=C/c1cccc(N(Cc2ccc(-c3ccc(N(C)C)cc3)c(C)c2)C(=O)C2CCCCC2)c1 [compound 53, (E)-Methyl 3-(3-(N-((4′-(dimethylamino)-2-methyl-[1,1′-biphenyl]-4-yl)methyl)cyclohexanecarboxamido)phenyl) acrylate] | +++ (‘+++’ means Cmpd/Fex < 10) | 1 to 10
COC(=O)/C=C/c1cccc(N(Cc2ccc(-c3cscn3)cc2)C(=O)C2CCCCC2)c1 [compound 68, (E)-Methyl 3-(3-(N-(4-(thiazol-4-yl)benzyl)cyclohexanecarboxamido)phenyl) acrylate] | + (‘+’ means Cmpd/Fex > 100) | 1 to 10
COC(=O)/C=C/c1cccc(N(Cc2ccc(-c3ccc(F)cc3)cc2)C(=O)C2CCCCC2)c1 [compound 25, (E)-Methyl 3-(3-(N-((4′-fluoro-[1,1′-biphenyl]-4-yl)methyl)cyclohexanecarboxamido)phenyl)acrylate] | ++ (‘++’ means Cmpd/Fex > 10 & < 100) | 1 to 10
COC(=O)/C=C/c1cccc(N(Cc2ccc(-c3cccc(OC(F)(F)F)c3)cc2)C(=O)C2CCCCC2)c1 [compound 30, (E)-Methyl 3-(3-(N-((3′-(trifluoromethoxy)-[1,1′-biphenyl]-4-yl)methyl)cyclohexanecarboxamido)phenyl)acrylate] | + (‘+’ means Cmpd/Fex > 100) | 1 to 10
COC(=O)/C=C/c1cccc(N(Cc2ccc(-c3ccc(C)c(OC)c3)cc2)C(=O)C2CCCCC2)c1 [compound 58, (E)-Methyl 3-(3-(N-((3′-methoxy-4′-methyl-[1,1′-biphenyl]-4-yl)methyl)cyclohexanecarboxamido)phenyl) acrylate] | +++ (‘+++’ means Cmpd/Fex < 10) | 1 to 10
COC(=O)/C=C/c1cccc(N(Cc2ccc(N3CCOCC3)cc2)C(=O)C2CCCCC2)c1 [compound 77, (E)-Methyl 3-(3-(N-(4-morpholinobenzyl)cyclohexane-carboxamido)phenyl)acrylate] | + (‘+’ means Cmpd/Fex > 100) | 1 to 10
COC(=O)/C=C/c1cc(N(Cc2ccc(-c3ccc(N(C)C)cc3)cc2)C(=O)C2CCCCC2)ccc1C [compound 40, (E)-Methyl 3-(5-(N-((4′-(dimethylamino)-[1,1′-biphenyl]-4-yl)methyl)cyclohexanecarboxamido)-2-methylphenyl)acrylate] | + (‘+’ means Cmpd/Fex > 100) | > 10
COC(=O)/C=C/c1cccc(N(Cc2ccc(-c3ccccc3C)cc2)C(=O)C2CCCCC2)c1 [compound 21, (E)-Methyl 3-(3-(N-((2′-methyl-[1,1′-biphenyl]-4-yl)methyl)cyclohexanecarboxamido)phenyl)acrylate] | +++ (‘+++’ means Cmpd/Fex < 10) | 1 to 10
COC(=O)/C=C(\C)c1cccc(N(Cc2ccc(-c3ccc(N(C)C)cc3)cc2)C(=O)C2CCCCC2)c1 [compound 45, (E)-Methyl 3-(3-(N-((4′-(dimethylamino)-[1,1′-biphenyl]-4-yl)methyl)cyclohexanecarboxamido)phenyl)but-2-enoate] | +++ (‘+++’ means Cmpd/Fex < 10) | 1 to 10
COC(=O)/C=C/c1cccc(N(Cc2ccc(-c3cccc(O)c3)cc2)C(=O)C2CCCCC2)c1 [compound 55, (E)-Methyl 3-(3-(N-((3′-hydroxy-[1,1′-biphenyl]-4-yl)methyl)cyclohexanecarboxamido)phenyl) acrylate] | + (‘+’ means Cmpd/Fex > 100) | > 10
COC(=O)CC(C)c1cccc(N(Cc2ccc(-c3ccc(N(C)C)cc3)cc2)C(=O)C2CCCCC2)c1 (stereo not drawn) [compound 94, Methyl 3-(3-(N-((4′-(dimethylamino)-[1,1′-biphenyl]-4-yl)methyl)cyclohexanecarboxamido)phenyl) butanoate] | ++ (‘++’ means Cmpd/Fex > 10 & < 100) | 1 to 10
CCOC(=O)N(Cc1ccc(-c2ccc(N(C)C)cc2)cc1)c1cccc(/C=C/C(=O)OC)c1 [compound 3, (E)-Methyl 3-(3-(((4′-(dimethylamino)-[1,1′-biphenyl]-4-yl)methyl)(ethoxycarbonyl)amino)phenyl)acrylate] | ++ (‘++’ means Cmpd/Fex > 10 & < 100) | 1 to 10
